The values that follow are results of earlier work, collected in publication PMC8007111, “Novel Potent Muscarinic Receptor Antagonists: Investigation on the Nature of Lipophilic Substituents in the 5- and/or 6-Positions of the 1,4-Dioxane Nucleus” (Journal of Medicinal Chemistry, 2020).

The structures appear in SMILES notation.

Common to all, as to details: cited from earlier work
Data set [1] has as its target T1, hM1 mAChR (Homo sapiens, UniProt P11229).
T1 construct: expressed in transfected cells; host or cells: CHO-K1 (membrane preparation)
T1 sequence (P11229 1-460): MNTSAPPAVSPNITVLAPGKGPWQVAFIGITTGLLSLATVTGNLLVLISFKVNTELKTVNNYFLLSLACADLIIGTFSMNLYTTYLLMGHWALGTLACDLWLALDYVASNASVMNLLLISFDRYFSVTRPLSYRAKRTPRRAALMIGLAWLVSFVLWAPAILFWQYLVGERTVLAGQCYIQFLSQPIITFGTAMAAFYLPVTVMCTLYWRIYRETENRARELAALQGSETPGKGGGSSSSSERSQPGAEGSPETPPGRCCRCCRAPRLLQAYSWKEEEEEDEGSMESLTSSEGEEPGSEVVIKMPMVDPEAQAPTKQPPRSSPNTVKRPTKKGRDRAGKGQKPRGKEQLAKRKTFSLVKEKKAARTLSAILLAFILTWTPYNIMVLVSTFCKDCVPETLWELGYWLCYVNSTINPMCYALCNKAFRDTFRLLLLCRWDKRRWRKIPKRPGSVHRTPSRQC

In data set [2] the target is T2, hM2 mAChR (Homo sapiens, UniProt P08172).
T2 construct: expressed in transfected cells; host or cells: CHO-K1 (membrane preparation)
T2 sequence (P08172 1-466): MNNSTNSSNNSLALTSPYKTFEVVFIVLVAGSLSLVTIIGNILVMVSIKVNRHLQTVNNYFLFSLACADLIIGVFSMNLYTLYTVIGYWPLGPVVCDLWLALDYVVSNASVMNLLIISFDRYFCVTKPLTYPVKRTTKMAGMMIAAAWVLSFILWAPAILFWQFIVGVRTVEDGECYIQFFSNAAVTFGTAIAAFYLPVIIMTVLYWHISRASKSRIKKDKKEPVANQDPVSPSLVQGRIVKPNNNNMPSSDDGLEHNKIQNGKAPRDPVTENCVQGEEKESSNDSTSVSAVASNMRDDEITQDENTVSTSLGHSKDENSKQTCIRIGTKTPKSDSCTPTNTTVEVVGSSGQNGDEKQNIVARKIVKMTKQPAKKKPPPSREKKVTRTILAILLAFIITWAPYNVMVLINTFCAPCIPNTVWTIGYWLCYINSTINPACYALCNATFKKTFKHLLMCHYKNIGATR

Data set [3] deals with T3, hM5 mAChR (Homo sapiens, UniProt P08912).
T3 construct: expressed in transfected cells; host or cells: CHO-K1 (membrane preparation)
T3 sequence (P08912 1-532): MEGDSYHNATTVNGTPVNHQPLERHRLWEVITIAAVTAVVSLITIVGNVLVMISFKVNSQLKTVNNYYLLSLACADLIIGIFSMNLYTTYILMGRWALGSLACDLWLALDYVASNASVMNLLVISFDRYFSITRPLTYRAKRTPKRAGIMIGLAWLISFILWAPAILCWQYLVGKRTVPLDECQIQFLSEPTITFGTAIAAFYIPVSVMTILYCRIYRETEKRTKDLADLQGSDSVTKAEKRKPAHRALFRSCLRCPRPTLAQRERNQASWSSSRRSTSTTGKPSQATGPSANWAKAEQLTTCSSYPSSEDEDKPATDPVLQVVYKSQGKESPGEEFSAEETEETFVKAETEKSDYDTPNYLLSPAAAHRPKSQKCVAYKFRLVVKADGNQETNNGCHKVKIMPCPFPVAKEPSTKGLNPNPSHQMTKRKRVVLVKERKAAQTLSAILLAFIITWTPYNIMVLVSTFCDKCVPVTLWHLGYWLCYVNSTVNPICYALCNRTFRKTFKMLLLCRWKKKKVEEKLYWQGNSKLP

Data set [4] has as its target T4, hM3 mAChR (Homo sapiens, UniProt P20309).
T4 construct: expressed in transfected cells; host or cells: CHO-K1 (membrane preparation)

Data set [5] has as its target T5, hM4 mAChR (Homo sapiens, UniProt P08173).
T5 construct: expressed in transfected cells; host or cells: CHO-K1 (membrane preparation)
T5 sequence (P08173 1-479): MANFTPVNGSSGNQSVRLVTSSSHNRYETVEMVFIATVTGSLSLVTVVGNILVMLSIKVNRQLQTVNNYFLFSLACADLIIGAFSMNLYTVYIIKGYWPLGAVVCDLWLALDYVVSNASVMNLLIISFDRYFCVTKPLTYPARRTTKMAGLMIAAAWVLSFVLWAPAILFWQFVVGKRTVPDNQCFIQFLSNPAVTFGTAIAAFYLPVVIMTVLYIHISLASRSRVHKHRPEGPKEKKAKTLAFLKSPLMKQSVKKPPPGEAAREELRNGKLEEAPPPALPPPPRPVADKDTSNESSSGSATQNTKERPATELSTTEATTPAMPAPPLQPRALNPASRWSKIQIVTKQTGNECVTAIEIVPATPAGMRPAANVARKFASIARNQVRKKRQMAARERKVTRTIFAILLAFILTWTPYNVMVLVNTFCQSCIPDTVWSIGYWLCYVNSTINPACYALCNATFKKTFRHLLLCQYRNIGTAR

T4 sequence (P20309 whole entry): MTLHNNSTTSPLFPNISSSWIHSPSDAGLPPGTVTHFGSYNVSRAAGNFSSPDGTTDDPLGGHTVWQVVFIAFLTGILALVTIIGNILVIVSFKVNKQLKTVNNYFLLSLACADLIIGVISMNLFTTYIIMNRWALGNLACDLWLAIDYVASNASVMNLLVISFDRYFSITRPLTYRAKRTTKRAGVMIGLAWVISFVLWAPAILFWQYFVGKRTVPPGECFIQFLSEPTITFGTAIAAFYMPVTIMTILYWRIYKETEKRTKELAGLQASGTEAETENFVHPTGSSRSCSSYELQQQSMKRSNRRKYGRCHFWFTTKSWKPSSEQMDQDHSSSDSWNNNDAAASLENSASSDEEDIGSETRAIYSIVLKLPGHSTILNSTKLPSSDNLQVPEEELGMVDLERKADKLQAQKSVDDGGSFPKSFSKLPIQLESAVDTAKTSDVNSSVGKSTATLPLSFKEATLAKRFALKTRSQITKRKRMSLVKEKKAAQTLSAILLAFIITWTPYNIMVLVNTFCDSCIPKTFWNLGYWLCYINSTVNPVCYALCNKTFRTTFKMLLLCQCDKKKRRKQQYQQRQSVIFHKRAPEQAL

Turning to `O=C(O[C@H]1C[C@H]2CC[C@@H](C1)[N+]21CCCC1)C(O)(c1ccccc1)c1ccccc1` [trospium], the “pKi hM1” value in data set [1] is 8.46. Besides, the “pKi hM2” value in data set [2] is 8.94. Besides, in data set [3], the “pKi hM5” value is recorded as 8.22. Besides, the “pKi hM3” value in data set [4] was 8.99. Besides, the “pKi hM4” value in data set [5] was 8.84.
